Measured values published in PubChem BioAssay (NCI).
Where “and” joins values, the source holds several entries; their conditions need not be identical. Equal entries are not always repeated.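 Values below derive from 48-hour exposures of cells grown in 96-well plates, with endpoints linearly interpolated between the two concentrations bracketing the appropriate inhibition level. Abbreviation: GI50, concentration required for 50% inhibition of growth. TGI: total growth inhibition.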

Key:
Assay in all cases: NCI tumour cell line growth inhibition, 48 h
UACC-62 melanoma = test system: UACC-62 melanoma
MDA-MB-231 breast = test system: MDA-MB-231 breast
OVCAR-8 ovarian = test system: OVCAR-8 ovarian
MALME-3M melanoma = test system: MALME-3M melanoma
M19-MEL melanoma = test system: M19-MEL melanoma
SK-MEL-5 melanoma = test system: SK-MEL-5 melanoma
DLD-1 colon = test system: DLD-1 colon
OVCAR-4 ovarian = test system: OVCAR-4 ovarian
UACC-257 melanoma = test system: UACC-257 melanoma
BT-549 breast = test system: BT-549 breast

Row | SMILES | GI50 (UACC-62 melanoma) | TGI (UACC-62 melanoma) | GI50 (MDA-MB-231 breast) [µM] | TGI (MDA-MB-231 breast) [µM] | GI50 (OVCAR-8 ovarian) | TGI (OVCAR-8 ovarian) | GI50 (MALME-3M melanoma) [µM] | TGI (MALME-3M melanoma) | TGI (M19-MEL melanoma) | GI50 (SK-MEL-5 melanoma) | TGI (SK-MEL-5 melanoma) | TGI (DLD-1 colon) | GI50 (OVCAR-4 ovarian) [µM] | TGI (OVCAR-4 ovarian) | GI50 (UACC-257 melanoma) | TGI (UACC-257 melanoma) | GI50 (BT-549 breast) [µM] | TGI (BT-549 breast) [µM] | GI50 (M19-MEL melanoma) | GI50 (DLD-1 colon)
1 | CC1CC2C3CCC4=CC(=O)C=CC4(C)C3(F)C(O)CC2(C)C1(O)C(=O)COP(=O)(O)O (stereo not given) | > 500 µM | > 500 µM | > 500 | > 500 | > 500 µM | > 500 µM | > 500 | > 500 µM | > 100 µM | > 500 µM | > 500 µM | > 100 µM | > 500 | > 500 µM | > 500 µM | > 500 µM | 160 | > 500 |  | 
2 | COC(=O)NC1C(C)OC(OC2C/C=C(/C)C3C=CC4C(OC5CC(OC6CCC(OC7CC(O)C(OC8CCC(O)C(C)O8)C(C)O7)C(C)O6)C(OC(C)=O)C(C)O5)C(C)CC(C)C4C3(C)/C(O)=C3/C(=O)OC4(CC(C=O)=CC(O)C4/C=C\2C)C3=O)CC1(C)[N+](=O)[O-] (stereo not given) | 0.155 µM | 1.47 µM and 0.319 µM |  | 3.49 | 0.265 µM | 3.85 µM and 2.73 µM | 0.12 | 1.62 µM and 0.292 µM | 2.02 µM and 0.473 µM | 0.2 µM | 1.95 µM and 0.511 µM | 11.7 µM and 1.8 µM | 1.56 | 7.26 µM and 4.66 µM | 1.09 µM | 2.47 µM and 11.1 µM |  | 2.18 | 0.0982 µM | 0.427 µM
3 | Cc1ccc(NC(=O)CCc2nc(=S)[nH][nH]2)cc1 |  | > 100 µM |  |  |  | > 100 µM |  | > 100 µM | > 100 µM |  | > 100 µM | > 100 µM |  | > 100 µM |  | > 100 µM |  |  |  | 
4 | CC(C)(C)c1cc(CCC(=O)Nc2ccc(Cl)cc2)[nH]c(=S)n1 |  | > 100 µM |  |  |  | > 100 µM |  | > 100 µM | > 100 µM |  | > 100 µM | > 100 µM |  | > 100 µM |  | > 100 µM |  |  |  | 
5 | COC(=O)C(=O)Cc1nc2ccccc2s1 |  | > 100 µM |  |  |  | > 100 µM |  | > 100 µM | > 100 µM |  | > 100 µM | > 100 µM |  | > 100 µM |  | > 100 µM |  |  |  | 
6 | O=C1c2ccccc2C(=O)c2cc3c(cc21)CS(=O)C3 |  | > 100 µM |  |  |  | > 100 µM |  | > 100 µM | > 100 µM |  | > 100 µM | > 100 µM |  | > 100 µM |  | > 100 µM |  |  |  | 
7 | COC1C2C[C@@H](O)CCC2C(C(=O)OCCl)C[C@H]1O (stereo not given in full) |  | > 100 µM |  |  |  | > 100 µM |  | > 100 µM | > 100 µM |  | > 100 µM | > 100 µM |  | > 100 µM |  | > 100 µM |  |  |  | 
8 | COC(=O)CCSC(=O)Nc1ccc(N=Nc2ccccc2)cc1 |  | > 100 µM |  |  |  | > 100 µM |  | > 100 µM | > 100 µM |  | > 100 µM | > 100 µM |  | > 100 µM |  | > 100 µM |  |  |  | 
9 | CN=c1ss/c(=N\C(=S)N(C)C)n1C |  | > 100 µM |  |  |  | > 100 µM |  | > 100 µM | > 100 µM |  | > 100 µM | > 100 µM |  | > 100 µM |  | > 100 µM |  |  |  | 
10 | CC(=O)OCC1OC(n2c(=S)n(-c3ccc([N+](=O)[O-])cc3)c(=O)c3ccccc32)C(OC(C)=O)C(OC(C)=O)C1OC(C)=O (stereo not given) | 17.6 µM | 34 µM and 40.7 µM |  |  |  | 63.5 µM and 47.6 µM |  | 38.4 µM | > 100 µM and 55.4 µM | 8.06 µM and 25.6 µM | 23.3 µM and > 100 µM | > 100 µM |  | 60.3 µM and 40.9 µM | 13 µM and 28.3 µM | 38.1 µM and 97.3 µM |  | 26.7 | 29.7 µM and 16.8 µM | 21.9 µM and 30.4 µM
11 | CCOC(=O)C(C)(NC(=O)c1ccc(NCc2ccc3nc(NC(=O)c4ccccc4)nc(NC(=O)c4ccccc4)c3c2)cc1)C(=O)OCC |  | 22.1 µM |  |  |  | 17.8 µM |  | 38 µM | 24.9 µM |  | 22.7 µM | > 100 µM |  | 4.18 µM |  | 36.4 µM |  |  |  | 
12 | COc1cc(C2c3cc4c(cc3[C@@H](NCCN(C)C)C3COC(=O)[C@H]23)OCO4)cc(OC)c1O (stereo not given in full) | 0.0319 µM and 0.088 µM | 0.319 µM and 0.834 µM |  |  | 0.265 µM and 1.08 µM | 1.72 µM and 2.72 µM |  | 1.61 µM and 2.3 µM | 4.11 µM and 7.18 µM |  | 1.09 µM and 1.55 µM | 4.03 µM and 7.43 µM |  | 5.19 µM and 13.3 µM | 0.526 µM and 1.62 µM | 4.14 µM and 6.16 µM |  |  |  | 
